Our source for the TGI and GI50 values is PubChem BioAssay (NCI).

Some test systems named below: M19-MEL melanoma; KM20L2 colon; DMS 273 small cell lung; DMS 114 small cell lung; HOP-18 NSCLC; LXFL 529 NSCLC; RXF-631 renal; MDA-N; XF 498 CNS.
Holding throughout (test): NCI tumour cell line growth inhibition, 48 h

Each structure is given as a SMILES string. “And” between values parts separate entries of the source, which are not always exact repeats. Equal entries are not always repeated.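 Where inhibition never reached the appropriate level, the endpoint shown equals the highest concentration tested. Otherwise, values were interpolated linearly from a five-concentration, 48-hour dose response in 96-well plates. GI50 = concentration required for 50% inhibition of growth. The concentration for full growth arrest is given as TGI.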

With `O=C(Nc1cc(Cl)ccc1Cl)c1cc2ccccc2oc1=O`, the TGI in the experiment on M19-MEL melanoma was over 100 µM; with KM20L2 colon it was over 100 µM; in the experiment with DMS 273 small cell lung it was over 100 µM; in the experiment with DMS 114 small cell lung, over 100 µM; with HOP-18 NSCLC it was 83 µM.

For `CCc1cccc(CC)c1NC1=CC(=O)C(=O)c2ccccc21`, the TGI is 17.2 µM in the experiment with M19-MEL melanoma; 48.9 µM in the experiment on KM20L2 colon; 48.8 µM in the experiment with LXFL 529 NSCLC; over 100 µM in the experiment on RXF-631 renal; 41.6 µM with DMS 273 small cell lung; 27.6 µM in the experiment with DMS 114 small cell lung. In the experiment on HOP-18 NSCLC, this molecule came in with a TGI of 62.9 µM.

Turning to `c1c[nH]c(CN2CCN(Cc3ncc[nH]3)CC2)n1`, the TGI with MDA-N was over 100 µM.

As to `CCCCCCCCCCCCCCCCCCCCCCC(=O)N[C@H]1CCc2cc(OC)c(OC)c(OC)c2-c2ccc(SC)c(=O)cc21`, the TGI with M19-MEL melanoma is over 100 µM; with KM20L2 colon it was 37.1 µM; in the experiment with LXFL 529 NSCLC, over 100 µM; in the experiment with RXF-631 renal it was 51.4 µM; with DMS 273 small cell lung, over 100 µM; in the experiment with XF 498 CNS, 61.3 µM.

Take `C=CC(C)(C)[C@@]12CC3C(=O)N[C@@H](Cc4ccccc4)C(=O)N3[C@@H]1N(C(C)=O)c1ccccc12` (stereo partly specified): the TGI with M19-MEL melanoma, in the experiment with KM20L2 colon, in the experiment with LXFL 529 NSCLC, in the experiment with RXF-631 renal, with DMS 273 small cell lung and with DMS 114 small cell lung was over 100 µM throughout. Moreover, the TGI in the experiment on HOP-18 NSCLC and with XF 498 CNS was over 100 µM in each case.

For the molecule `CC(=O)NNc1nc(C)c(C(=O)NNC(=O)C(=O)Nc2ccc(C)cc2[N+](=O)[O-])s1`, the TGI in the experiment on M19-MEL melanoma, in the experiment with KM20L2 colon, in the experiment on LXFL 529 NSCLC, with RXF-631 renal, with DMS 273 small cell lung and in the experiment with DMS 114 small cell lung was over 100 µM each time. This molecule had a TGI in the experiment on HOP-18 NSCLC of over 100 µM.

With `CC(=O)Nc1ccc(/C=C/C(=O)c2sc(-n3nc(-c4ccccc4)cc3-c3ccccc3)nc2C)cc1`, the GI50 with M19-MEL melanoma, in the experiment with KM20L2 colon, in the experiment with LXFL 529 NSCLC, in the experiment with RXF-631 renal and in the experiment on DMS 273 small cell lung was over 100 µM throughout. For the same molecule, the TGI in the experiment on M19-MEL melanoma, with KM20L2 colon, in the experiment on LXFL 529 NSCLC, with RXF-631 renal, in the experiment on DMS 273 small cell lung and in the experiment with DMS 114 small cell lung was over 100 µM throughout.

Regarding `O=C(/C=C/c1c[nH]c2ccccc12)c1ccccc1O`, the TGI in the experiment with MDA-N was determined as 17.5 µM.

Consider `N#Cc1cccc(C2SCc3nc4ccccc4n32)c1` (stereo unspecified), for which the TGI in the experiment on KM20L2 colon, in the experiment with LXFL 529 NSCLC, with RXF-631 renal, in the experiment on DMS 273 small cell lung, in the experiment on DMS 114 small cell lung and in the experiment with XF 498 CNS was over 100 µM each time.

In the experiment on MDA-N, `CC(C)CC(=O)O[C@H]1C(=O)O[C@@H]2C[C@H]3[C@H](C)C(=O)C(O[C@@H]4O[C@H](CO)[C@@H](O)[C@H](O)[C@H]4O)=C[C@]3(C)[C@H]3[C@@H](O)[C@H](O)[C@]4(C(=O)O)OC[C@]32[C@@H]14` came in with a TGI of over 100 µM.

In the case of `CC(=O)O[C@@H]1[C@H]2O[C@H]2[C@H]2O[C@@]2(COC(=O)c2ccccc2)[C@H]1OC(C)=O`, in the experiment on MDA-N, the TGI is over 100 µM.

With `O=C(CC1(O)C(=O)Nc2ccc(Br)cc21)c1cccc([N+](=O)[O-])c1` (stereo unspecified), the TGI in the experiment on KM20L2 colon, in the experiment on LXFL 529 NSCLC, in the experiment with RXF-631 renal, in the experiment on DMS 273 small cell lung and in the experiment with HOP-18 NSCLC was over 100 µM each time.

Take `O=C(/C=C/c1ccccc1)c1ccccn1`: the TGI with MDA-N is 30.5 µM and 67.4 µM.

Turning to `COC(=O)N1C=Cc2c(c(C)c3c([nH]c4ccccc43)c2C)C1C` (stereo unspecified), the TGI in the experiment on M19-MEL melanoma is 37.6 µM; in the experiment on KM20L2 colon, 29.3 µM; in the experiment on LXFL 529 NSCLC, 43.7 µM; in the experiment with RXF-631 renal it was 37.5 µM; with DMS 273 small cell lung, 39 µM; with DMS 114 small cell lung, 40 µM. The TGI in the experiment with XF 498 CNS was 34.2 µM.

Regarding `Cc1nc2ccccc2c(=O)n1/N=C(\N=Nc1ccc(Cl)cc1)c1ccc(N(C)C)cc1`, the TGI in the experiment on M19-MEL melanoma, in the experiment on KM20L2 colon, with LXFL 529 NSCLC, in the experiment on DMS 273 small cell lung, in the experiment on DMS 114 small cell lung and in the experiment on HOP-18 NSCLC was over 100 µM throughout. The molecule further displayed a TGI with XF 498 CNS of 96.3 µM.

Regarding `O=c1ccn([C@@H]2C[C@H](CO)CS(=O)C2)c(=O)[nH]1` (stereo partly specified), the TGI in the experiment on M19-MEL melanoma, in the experiment with KM20L2 colon, in the experiment on LXFL 529 NSCLC, in the experiment on DMS 273 small cell lung, in the experiment with DMS 114 small cell lung and in the experiment with HOP-18 NSCLC was over 100 µM throughout.

As for `BrC(/C=N/Nc1nnc(-c2ccccc2)c(-c2ccccc2)n1)C(Br)c1ccccc1` (stereo unspecified), the TGI with M19-MEL melanoma is over 100 µM; with KM20L2 colon, over 100 µM; in the experiment with RXF-631 renal it was over 100 µM; with DMS 273 small cell lung, over 100 µM; in the experiment on DMS 114 small cell lung, over 100 µM; in the experiment on XF 498 CNS, 82.7 µM.

Turning to `O=P(c1ccccc1)(c1ccccc1)C1CC=C2CCCCCC2C1` (stereo unspecified), the TGI in the experiment on M19-MEL melanoma was over 100 µM; in the experiment on KM20L2 colon, over 10 µM; in the experiment with LXFL 529 NSCLC, 46.2 µM; with RXF-631 renal it was 85.4 µM; with DMS 273 small cell lung, 64.5 µM; in the experiment with DMS 114 small cell lung it was 68.2 µM. Also, the TGI turned out to be 44.2 µM in the experiment on HOP-18 NSCLC and 91.6 µM with XF 498 CNS.

For the molecule `COc1ccc(Cc2c3cc(OC)c(OC)cc3cc[n+]2C)cc1`, the TGI with M19-MEL melanoma is over 55.3 µM; in the experiment on KM20L2 colon it was 24.3 µM; in the experiment with LXFL 529 NSCLC, over 24.6 µM; with RXF-631 renal it was over 24 µM; with DMS 114 small cell lung, over 28.8 µM; in the experiment with HOP-18 NSCLC, over 45.8 µM. Further, the TGI in the experiment on XF 498 CNS is over 23.4 µM.
